For experiment [1], the system named is Klebsiella aerogenes. Description: In vitro antibacterial activity against Enterobacter aerogenes ATCC 13048. Format: functional.
The subject of experiment [2] is Escherichia coli. The experiment in a line: In vitro antibacterial activity against Escherichia coli Juhl. The experiment is classed as functional.
Experiment [3] has as its system Klebsiella pneumoniae. Description: In vitro antibacterial activity against Klebsiella pneumoniae 8045. The experiment is classed as functional.
The test system of experiment [4] is Pseudomonas aeruginosa. Description: In vitro antibacterial activity against Pseudomonas aeruginosa K799/WT. Format: functional.
The test system of experiment [5] is Staphylococcus epidermidis. Description: In vitro antibacterial activity against Staphylococcus epidermis 3519. Format: functional.
Experiment [6] concerns Streptococcus pyogenes. Description: In vitro antibacterial activity against Streptococcus pyogenes 930. The experiment is classed as functional.
For experiment [7], the system named is Staphylococcus aureus. Description: In vitro antibacterial activity against Staphylococcus aureus CMX 686B. Format: functional.
Experiment [8] has as its system Staphylococcus aureus. Description: In vitro antibacterial activity against Staphylococcus aureus ATCC 6538P. Format: functional.
For experiment [9], the system named is Enterococcus faecium. Description: In vitro antibacterial activity against Streptococcus faecium ATCC 8043. The experiment is classed as functional.
Experiment [10] deals with Acinetobacter. The experiment in a line: In vitro antibacterial activity against Acinetobacter CMX 669. Format: functional.
The test system of experiment [11] is Pseudomonas aeruginosa. Description: In vitro antibacterial activity against Pseudomonas aeruginosa 5007. The experiment is classed as functional.
The subject of experiment [12] is Escherichia coli. Description: […] against Escherichia coli Juhl (100 X LD50) (p.o. administration );Range is between (2.2-7.0). The experiment is classed as functional.
For experiment [13], the system named is Escherichia coli. Description: […] against Escherichia coli Juhl (100 X LD50) (s.c. administration );Range is between (1.6-3.9). Format: functional.
The subject of experiment [14] is Pseudomonas aeruginosa. The experiment in a line: […] against Pseudomonas aeruginosa 5007 (100 X LD50) (peroral administration );Range is between (17.7-44.1). The experiment is classed as functional.
For experiment [15], the system named is Pseudomonas aeruginosa. Description: […] against Pseudomonas aeruginosa 5007 (100 X LD50) (subcutaneous administration );Range is between (6.6-16.2). The experiment is classed as functional.
For experiment [16], the system named is Staphylococcus aureus. The experiment in a line: In vitro mouse protection test against Staphylococcus aureus NCTC 10649 (100 X LD50) (s.c. administration );Range is between (2.6-5.4). Particulars: sc. The experiment is classed as functional.
The subject of experiment [17] is Staphylococcus aureus. The experiment in a line: […] against Staphylococcus aureus NCTC 10649 (100 X LD50),(peroral administration); Range is between (3.7-10.2). The experiment is classed as functional. Particulars: po.
Experiment [18] concerns Pseudomonas aeruginosa. The experiment in a line: In vitro mouse protection test against Pseudomonas aeruginosa 5007 (100 X LD50) (subcutaneous administration; Range is between (1.1-3.8). The note with it: sc. Format: functional.
In experiment [19] the test system is Pseudomonas aeruginosa. Description: […] against Pseudomonas aeruginosa 5007 (100 X LD50) (p.o. administration ); Range is between (6.8-26.2). Format: functional. Particulars: po.
Experiment [20] concerns Escherichia coli. The experiment in a line: animal or person. Particulars: in Mus musculus, sc.
Experiment [21] concerns Escherichia coli. Description: animal or person. Particulars: in Mus musculus, po.
The test system of experiment [22] is Staphylococcus aureus. Description: animal or person. The note with it: in Mus musculus, po.
Description: In vitro mouse protection test against Staphylococcus aureus NCTC 10649 (100 X LD50) (p.o. administration );Range is between (9.9-24.1)
The subject of experiment [23] is Staphylococcus aureus. Description: animal or person. Particulars: in Mus musculus, sc.
Description: In vitro mouse protection test against Staphylococcus aureus NCTC 10649 (100 X LD50) (s.c. administration );Range is between (1.0-2.5)
In experiment [24] the test system is Escherichia coli. Description: Compound was evaluated in vivo for antibacterial activity against Escherichia coli Juhl (100 X LD50) (p.o. administration); Range is between (2.8-6.5). Particulars: po. Format: functional.
For experiment [25], the system named is Escherichia coli. Description: Compound was evaluated in vivo for antibacterial activity against Escherichia coli Juhl (100 X LD50) (s.c. administration); Range is between (0.3-1.3). The experiment is classed as functional. Particulars: sc.
The subject of experiment [26] is Escherichia coli. The experiment in a line: Compound was evaluated in vivo for antibacterial activity against Escherichia coli Juhl (100 X LD50) (p.o. administration); Range is between (3.8-11.2). The experiment is classed as functional.
Experiment [27] has as its system Pseudomonas aeruginosa. The experiment in a line: Compound was evaluated in vivo for antibacterial activity against Pseudomonas aeruginosa 5007 (100 X LD50) (s.c. administration); Range is between (1.0-2.5). The note with it: sc. The experiment is classed as functional.
Experiment [28] deals with Pseudomonas aeruginosa. The experiment in a line: Compound was evaluated in vivo for antibacterial activity against Pseudomonas aeruginosa 5007 (100 X LD50);. The experiment is classed as functional.
The test system of experiment [29] is Staphylococcus aureus. Description: Compound was evaluated in vivo for antibacterial activity against Staphylococcus aureus NCTC 10649 (100 X LD50) (s.c. administration); Range is between (1.0-2.5). Format: functional. Particulars: sc.
For experiment [30], the system named is Pseudomonas aeruginosa. Description: Compound was evaluated in vivo for antibacterial activity against Pseudomonas aeruginosa 5007 (100 X LD50) (p.o. administration); Range is between (13.4-34.4). Particulars: po. The experiment is classed as functional.

≈ marks a conversion by molar mass, not a printed value.

With `NC1CCN(c2c(F)cc3c(=O)c(C(=O)O)cn(-c4ccc(F)cc4F)c3c2F)C1` (centres undefined), the MIC was 0.2 µg/mL (≈ 0.475 µM) in experiment [1]; 0.1 µg/mL (≈ 0.237 µM) in experiment [2]; 0.1 µg/mL (≈ 0.237 µM) in experiment [3]; 0.78 µg/mL (≈ 1.85 µM) in [4]; 0.39 µg/mL (≈ 0.926 µM) in [5]; 0.78 µg/mL (≈ 1.85 µM) in [6]. Further, the MIC in experiment [7] stood at 0.2 µg/mL (≈ 0.475 µM); in experiment [8], 0.2 µg/mL (≈ 0.475 µM); in experiment [9], 1.56 µg/mL (≈ 3.7 µM); in experiment [10] it was 0.39 µg/mL (≈ 0.926 µM); in experiment [11] it was 1.56 µg/mL (≈ 3.7 µM).
As to `CN1CCN(c2c(F)cc3c(=O)c(C(=O)O)cn(-c4ccc(F)cc4F)c3c2F)CC1`, the MIC came to 0.39 µg/mL (≈ 0.896 µM) in [1]; 0.39 µg/mL (≈ 0.896 µM) in experiment [2]; 0.2 µg/mL (≈ 0.459 µM) in experiment [3]; 1.56 µg/mL (≈ 3.58 µM) in [4]; 0.78 µg/mL (≈ 1.79 µM) in [5]; 3.1 µg/mL (≈ 7.12 µM) in experiment [6]. Besides, the MIC in experiment [7] worked out at 0.39 µg/mL (≈ 0.896 µM); in experiment [8] it was 0.39 µg/mL (≈ 0.896 µM); in experiment [9] it was 6.2 µg/mL (≈ 14.2 µM); in experiment [10], 0.39 µg/mL (≈ 0.896 µM); in experiment [11], 3.1 µg/mL (≈ 7.12 µM). Also, the ED50 mg/kg in [12] was 3.9; in [13], 2.5; in experiment [14], 27.9; in experiment [15] it was 10.3. In addition, the ED50 came to 3.7 mg/kg in [16] and 6.1 mg/kg in experiment [17].
For `O=C(O)c1cn(C2CC2)c2cc(N3CCNCC3)c(F)cc2c1=O` [CIPROFLOXACIN], the MIC was 0.05 µg/mL (≈ 0.151 µM) in experiment [1]; 0.02 µg/mL (≈ 0.0604 µM) in experiment [3]; 0.1 µg/mL (≈ 0.302 µM) in experiment [4]; 0.39 µg/mL (≈ 1.18 µM) in [5]; 0.39 µg/mL (≈ 1.18 µM) in [6]; 0.39 µg/mL (≈ 1.18 µM) in [7]. Besides, the MIC in [8] was found to be 0.2 µg/mL (≈ 0.604 µM); in experiment [9], 0.2 µg/mL (≈ 0.604 µM); in experiment [10], 1.56 µg/mL (≈ 4.71 µM); in experiment [11], 0.1 µg/mL (≈ 0.302 µM). Further, the ED50 worked out at 2.1 mg/kg in experiment [18]; 13.3 mg/kg in [19]; 0.2 mg/kg in [20]; 1.9 mg/kg in [21]; 15.5 mg/kg in experiment [22]; 1.6 mg/kg in experiment [23].
As to `CN1CCN(c2cc3c(cc2F)c(=O)c(C(=O)O)cn3-c2ccc(F)cc2)CC1` [DIFLOXACIN], the MIC was 0.78 µg/mL (≈ 1.95 µM) in experiment [1]; 0.2 µg/mL (≈ 0.501 µM) in experiment [2]; 0.1 µg/mL (≈ 0.25 µM) in [3]; 1.56 µg/mL (≈ 3.91 µM) in [4]; 0.39 µg/mL (≈ 0.976 µM) in experiment [5]; 1.56 µg/mL (≈ 3.91 µM) in [6]. Besides, the MIC was determined as 0.2 µg/mL (≈ 0.501 µM) in experiment [7]; 0.2 µg/mL (≈ 0.501 µM) in experiment [8]; 1.56 µg/mL (≈ 3.91 µM) in [9]; 0.78 µg/mL (≈ 1.95 µM) in experiment [10]; 0.78 µg/mL (≈ 1.95 µM) in experiment [11].
On to `Cl.O=C(O)c1cn(-c2ccc(F)cc2)c2cc(N3CCNCC3)c(F)cc2c1=O` [SARAFLOXACIN HYDROCHLORIDE], for which the ED50 in experiment [24] came to 4.3 mg/kg; in experiment [25], 0.6 mg/kg; in experiment [27] it was 1.6 mg/kg; in experiment [29] it was 1.6 mg/kg; in experiment [30], 21.4 mg/kg. Further, the MIC in experiment [1] is 0.2 µg/mL; in experiment [2] it was 0.05 µg/mL; in experiment [3] it was 0.02 µg/mL; in experiment [4] it was 0.39 µg/mL; in experiment [28] it was 0.39 µg/mL; in [5] it was 0.39 µg/mL. Moreover, the MIC in experiment [6] came out at 0.78 µg/mL; in experiment [7], 0.2 µg/mL; in experiment [8], 0.2 µg/mL; in experiment [9] it was 1.56 µg/mL; in experiment [10], 0.2 µg/mL; in experiment [11], 0.39 µg/mL. Further, the ED50 mg/kg in experiment [26] is recorded as 6.5.
For `NC1CCN(c2c(F)cc3c(=O)c(C(=O)O)cn(-c4ccc(F)cc4)c3c2F)C1` (centres undefined), the MIC in [1] was 0.2 µg/mL (≈ 0.496 µM); in experiment [2], 0.2 µg/mL (≈ 0.496 µM); in experiment [3], 0.05 µg/mL (≈ 0.124 µM); in [4] it was 1.56 µg/mL (≈ 3.87 µM); in experiment [5], 0.39 µg/mL (≈ 0.967 µM); in experiment [6], 1.56 µg/mL (≈ 3.87 µM). Also, the MIC in experiment [7] is 0.2 µg/mL (≈ 0.496 µM); in experiment [8], 0.2 µg/mL (≈ 0.496 µM); in experiment [9], 3.1 µg/mL (≈ 7.69 µM); in experiment [10], 0.78 µg/mL (≈ 1.93 µM); in experiment [11], 3.1 µg/mL (≈ 7.69 µM).

The MIC is the least concentration at which growth counts as inhibited. Low values mean inhibition by little substance, high ones a need for much substance. Usually ED50 stands for the dose that gives a 50% effect, or the effect in half of the subjects.

The values are drawn from ChEMBL document CHEMBL1123847, “Synthesis and structure-activity relationship of 1-aryl-6,8-difluoroquinolone antibacterial agents” (1987).
